Reference: PMC8029449 (ACS chemical neuroscience, 2021)

Tests used:
[1] = tested on: VEGFR2 phosphorylation at Y1175 in CAD cells; experiment: In cell western for inhibition of VEGFR2 activation by VEGF-A165; type: cell-based, mouse; conditions: compounds at 12.5 μM, 1 nM VEGF-A165, 1 hour
VSV-eGFP-SARS-CoV-2 = type: cell-based, vesicular stomatitis virus; conditions: 25 µM

NC(N)=NCCC[C@H](NC(=O)c1sccc1NS(=O)(=O)c1cccc2nsnc12)C(=O)O [Compound A]
block of VEGF-A stimulated increased phosphorylation of VEGFR2 (pY1175) [1]: blocked | inhibition of VSV-eGFP-SARS-CoV-2 entry into cells (VSV-eGFP-SARS-CoV-2): ineffective
